We go through two molecules from PMC9977294, “A parasitic fungus employs mutated eIF4A to survive on rocaglate-synthesizing Aglaia plants” (eLife, 2023).

Experiment [1] has as its system C. orbiculare eIF4A^His153Gly conidia and mycelia. Description: Ribosome profiling and RNA-Seq, translation efficiency change. To be noted: 3 µM aglafoline, 6 h, compared with eIF4A^WT. The experiment is classed as cell-based, Colletotrichum orbiculare. As for the experimental part: (§1) Glycerol stocks of C. orbiculare eIF4A^WT#1 and eIF4A^H153G#1 strains were streaked on PDA in 90 mm plastic Petri dishes and incubated for 3 days. A single colony of each strain was transferred onto PDA and incubated for 3 days. The outer edges of colonies were transferred to 90 mm plastic dishes filled with 20 ml of PDB using plastic straws and incubated for 4 days. Aglafoline (0.3 or 3 µM) or DMSO was added to dishes and incubated for 6 h.
(§2) A single colony from the glycerol stocks was cultured by the same method used for mycelium preparation. The outer edges of colonies of each strain were transferred into six 300 ml flasks filled with 100 ml of PDA. Two milliliters of sterilized water was added to each flask, and the flasks were shaken well to ensure that the mycelial cells adhered to the entire surface of the PDA evenly. After 6 days of incubation in the dark, conidia generated on the surface of PDA were suspended in 20 ml of sterilized water. […]
(§3) Sequence data were processed as previously described ([McGlincy and Ingolia, 2017]) with modifications. For ribosome profiling, using the Fastp v0.21.0 ([Chen et al., 2018]) tool, sequences of reads 1 were corrected by reads 2, and quality filtering and adapter sequence removal were performed on reads 1. The adapter-removed reads 1 were split by the barcode sequence. […]

For experiment [2], the system named is C. orbiculare eIF4A^WT conidia and mycelia. The experiment is described as above. The experiment is classed as cell-based, Colletotrichum orbiculare. To be noted: 0.3 or 3 µM aglafoline, 6 h. As for the experimental part:
as §1, §2, §3

The next experiment addresses T1, H. sapiens eIF4A1 WT (Homo sapiens, UniProt P60842).
T1 construct: His tag (N); made in house; host or cells: E. coli BL21 Star (DE3)
Put plainly: In vitro translation assay in reconstituted system with human factors. In kind it is biochemical. To be noted: for translation of reporter mRNA, Mean / translation of reporter mRNA, replicates: CAA repeats reporter, value at 0 μM RocA = 1. The text has this: The DNA fragments PCR-amplified from psiCHECK2−7×AGAGAG motifs or psiCHECK2-CAA repeats ([Iwasaki et al., 2016]) were used as a template for in vitro transcription with a T7-Scribe Standard RNA IVT Kit ([…]). RNA was capped and poly(A) tailed with a ScriptCap m^7G Capping System, a ScriptCap 2′-O-Methyltransferase Kit, and an A-Plus Poly(A) Polymerase Tailing Kit ([…]).
The reconstitution system for human translation has been described previously ([Iwasaki et al., 2019]; [Machida et al., 2018]; [Yokoyama et al., 2019]). The in vitro translation reaction and luciferase assay were performed as previously described ([Iwasaki et al., 2019]) with some modifications. The final concentrations of mRNA and the eIF4A protein were 60 ng/µl and 2.16 µM, respectively. The translation mixture was incubated for 2.5 hr. The fluorescence signal was detected using the Renilla-Glo Luciferase Assay System (Promega) and measured in an EnVision 2104 plate reader (PerkinElmer).

Several values for one entry are separate records, joined by “and”; a condition that tells them apart may be missing. Equal values may be shown once. Entries after “also recorded” stand apart in the source; their conditions may differ.

T1 sequence (P60842 whole entry): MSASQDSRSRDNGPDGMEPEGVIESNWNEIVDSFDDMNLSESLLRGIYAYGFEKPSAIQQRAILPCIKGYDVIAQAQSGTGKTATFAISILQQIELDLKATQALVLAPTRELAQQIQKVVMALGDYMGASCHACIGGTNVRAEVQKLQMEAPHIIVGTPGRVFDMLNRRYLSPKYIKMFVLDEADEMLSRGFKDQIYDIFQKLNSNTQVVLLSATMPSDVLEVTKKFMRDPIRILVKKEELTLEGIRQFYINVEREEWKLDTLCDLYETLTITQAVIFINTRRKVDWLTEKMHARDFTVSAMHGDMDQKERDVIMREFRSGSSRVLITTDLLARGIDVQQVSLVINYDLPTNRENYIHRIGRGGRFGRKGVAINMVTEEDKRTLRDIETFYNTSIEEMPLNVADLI

Turning to `COC(=O)[C@H]1[C@@H](O)[C@@]2(O)c3c(OC)cc(OC)cc3O[C@@]2(c2ccc(OC)cc2)[C@@H]1c1ccccc1` [Aglafoline, methyl rocaglate], the translation efficiency change result in experiment [1] is given as “attenuated by the His153Gly substitution”; in experiment [2], “a subset of mRNAs showed high aglafoline sensitivity in terms of translation efficiency in conidia; also recorded: the reduction was compound dose dependent”.
As for `COc1ccc([C@@]23Oc4cc(OC)cc(OC)c4[C@]2(O)[C@H](O)[C@H](C(=O)N(C)C)[C@H]3c2ccccc2)cc1` [RocA, rocaglamide A], the figures for the “translation of reporter mRNA, Mean” value on H. sapiens eIF4A1 WT (RocA 0.1 μM), on H. sapiens eIF4A1 WT (RocA 1 μM) and at H. sapiens eIF4A1 WT (RocA 10 μM) were 1.2394, 1.148 and 1.012, respectively. The “translation of reporter mRNA, replicates” value was 0.9075 and 1.715 and 1.095 on H. sapiens eIF4A1 WT (RocA 0.1 μM); 0.7715 and 1.702 and 0.9709 on H. sapiens eIF4A1 WT (RocA 1 μM); 0.7743 and 1.31 and 0.9501 at H. sapiens eIF4A1 WT (RocA 10 μM). The “translation of reporter mRNA” value at H. sapiens eIF4A1 WT (polypurine motif-possessing reporter mRNA, Figure 3A) is recorded as “translation reduction from polypurine motif-possessing reporter mRNA”.
